Experimental data published in the METLIN SMRT retention time set (Domingo-Almenara et al. 2019).

Assay: gradient 5% acetonitrile 3 min, to 50% in 2 min, to 85% in 15 min, held 3 min, 100 µL/min
Details: column: Zorbax Extend-C18 2.1 x 50 mm; eluents: water / acetonitrile, 0.1% formic acid
Method in brief: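 Pure standards were run in mixtures of ~100 molecules by HPLC coupled to a quadrupole time-of-flight mass spectrometer. The column was a Zorbax Extend-C18 (2.1 × 50 mm, 1.8 μm) at 100 μL/min, with water and acetonitrile each containing 0.1% formic acid, in positive and negative ionization mode. Dead and dwell volumes were 40 μL and 900 μL. Retention time was taken from computationally picked adduct peaks, each manually inspected, with data collected over 3 months.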

RP-LC retention time	Structure (SMILES)
834 s	CCCc1ccc(S(=O)(=O)N2CCC3(CC2)NCCN=C3NCc2cccc(OC)c2)cc1
862 s	COc1ccccc1-c1cnn2c(C)cc(C)nc12
829 s	CCN(Cc1ccccc1)C(=O)Cn1nc2c(N3CCSCC3)nccn2c1=O
707 s	CCN1CCn2c(nc3cc(C(=O)NCc4ccccc4Br)ccc32)C1=O
1010 s	O=S(=O)(Cc1ccccc1F)N1CCC(OCCOCc2ccccc2)CC1
863 s	CCn1cc(-c2nc(C)c(C(=O)Nc3ccc(N4CCOCC4)cc3)s2)c2cccnc21
591 s	COCCNC(=O)CCc1nc2ccccc2[nH]c1=O
1190 s	Cc1ccc(-n2nc(C)c3sc(N4CCCC(C(=O)NC(C)c5ccccc5)C4)nc32)cc1 (stereo unspecified)
728 s	Cc1nnc2c(=O)n(CC(=O)NCc3ccc(C(F)(F)F)cc3)c3cccnc3n12
770 s	CCN(Cc1ccccc1)C(=O)[C@H]1[C@@H](c2cc(OC)c(OC)c(OC)c2)c2cc3c(cc2[C@@H](O)[C@@H]1CO)OCO3
769 s	COc1cccc(C(=O)N2CCC(C(=O)NCc3csc(-c4cccs4)n3)CC2)c1
1080 s	CC(C)N1C(=O)C(C)(C(=O)NC2CCCCCC2)Oc2cccnc21 (stereo unspecified)
678 s	CC1CCN(c2cc(-n3cnc(C(=O)NCc4ccco4)c3)ncn2)CC1
1030 s	CCCN1C(=O)c2cc(S(=O)(=O)Nc3ccccc3F)ccc2Oc2cccnc21
848 s	O=C(Nc1ccc(Cl)cc1)N1CCC(n2cnc3cc(F)ccc3c2=O)CC1
670 s	O=C(Nc1ccccc1Br)N1CCC(n2cnc3cccnc32)CC1
665 s	CCN1CCN(C(=O)c2nnc(-c3ccc(S(=O)(=O)N4CCCCC4)cc3)o2)CC1
1110 s	COc1cccc(NC(=O)Cn2nc3cc(C)nc(Nc4cc(C)cc(C)c4)n3c2=O)c1

RP-LC retention time	Structure (SMILES)
980 s	CC(=O)N1CCC(C(=O)Nc2ccsc2-c2nc(-c3ccccc3)no2)CC1
566 s	Cn1c(C2CCC(CNC(=O)Cn3c(=O)oc4ccccc43)CC2)nc2ccccc21 (stereo unspecified)
1150 s	C=CCSc1nc2ccccc2c2nc(-c3ccncc3)nn12
880 s	COc1ccc(CC(=O)N2CCC[C@@H]2C(=O)NCc2csc(-c3ccccc3)n2)c(Cl)c1
954 s	O=C(NCc1ccco1)N1CCN(c2nc3ccccc3nc2C(F)(F)F)CC1
1040 s	CC1CCN(S(=O)(=O)c2ccc(-c3nnc(C(=O)NCc4ccc(F)cc4)o3)cc2)CC1
814 s	Cc1cccc(NC(=O)NC2CCN(c3ccccc3)C2=O)c1 (stereo unspecified)
827 s	CCN1c2ccc(F)cc2C(=O)NC12CCN(C(=O)c1cccc(C)c1)CC2
1120 s	CCCCCn1c(=O)c2ccccc2n(Cc2nc(-c3ccc(OC)c(OC)c3)no2)c1=O
498 s	Fc1ccc(CN2CCN(c3cnn4c(C5CC5)nnc4c3)CC2)cc1
1090 s	CCOC(=O)C1CCN(S(=O)(=O)c2cccc(-c3nnc(-c4ccc(C)cc4)o3)c2)CC1
536 s	c1cc(CSc2cc(N3CCCC3)ncn2)ccn1
842 s	CCOC(=O)C1CCN(c2cc3c(cc2NC(=O)NCc2ccc(C)cc2)n(C)c(=O)n3C)CC1
751 s	CCSc1ccccc1C(=O)Nc1nnc(-c2ccsc2)o1
626 s	O=S(=O)(c1cccc(F)c1)N1CCN(c2cnn3c(C4CC4)nnc3c2)CC1
596 s	CCN1CCn2cc(C(=O)NCc3ccc(SC)cc3)nc2C1
955 s	Cc1ccc(F)cc1S(=O)(=O)N1CCC2(C1)C(=O)N(C)c1ccccc12 (stereo unspecified)

Continued, molecule first:

Structure (SMILES)	RP-LC retention time
Cc1ccc(C(=O)N2CCCC(COc3ccc(C(=O)NC4CC4)cc3)C2)cc1F (stereo unspecified)	849 s
C=CCn1c(SCC(=O)NCC2CCCO2)nc2scc(-c3ccc(C)o3)c2c1=O (stereo unspecified)	895 s
CSC1=C(C#N)C(c2ccco2)C(C(=O)Nc2ccccc2C)=C(C)N1 (stereo unspecified)	786 s
O=C(NC1CC1)[C@@H]1C[C@H](Oc2cccnc2)CN1C(=O)CC1CCCC1	605 s
COc1ccc(Cl)cc1-n1nnc(C(=O)NC2CC2)c1-c1ccncc1	715 s
Fc1cccc(Cc2nc(-c3cccc(-c4ccn[nH]4)c3)no2)c1	915 s
CCC(CC)C(=O)Oc1coc(CSc2nc(C)cs2)cc1=O	882 s
COc1ccc(CCNC[C@H](O)c2ccc(O)cc2)cc1OC	656 s
CCc1ccc(CNC(=O)c2cn(-c3cc(-c4nc(C)no4)ccn3)cn2)cc1	805 s
CN(CC1CCOC1)C(=O)Nc1cc(F)c(F)c(F)c1 (stereo unspecified)	764 s
O=C(CCc1c(-c2ccccc2)nc2ccccn12)Nc1ccc(Br)cc1	725 s
O=C(c1cnccn1)N1CC(F)(F)C[C@H]1c1nc(C2CC2)no1	746 s
C=CCNC(=O)c1cn(-c2ncccc2-c2nc(C(C)(C)C)no2)cn1	776 s
COc1ccc(-c2cn3c(CC(=O)Nc4ccc(F)c(Cl)c4)csc3n2)cc1	832 s
Cn1nccc1-c1cccc(-c2noc(-c3ccoc3)n2)c1	938 s
CCc1noc(NC(C)=O)c1-c1ccc(C)c(S(=O)(=O)N(C)c2ccc(C)cc2)c1	861 s

Structure (SMILES)	RP-LC retention time
O=C(NC1(c2nc(-c3cccnc3)no2)CCCCC1)c1n[nH]c2c1CCCC2	854 s
Cc1cc(C)c(NC(=O)Cn2c(=O)cc(-c3nc(C)no3)c3ccccc32)c(C)c1	895 s
CN(C)c1ccc(-c2nc3cnccn3c2Nc2ccc3c(c2)OCO3)cc1	737 s
CSc1cccc(NC(=O)Cn2cccc(-c3nc(-c4ccc(Br)cc4)no3)c2=O)c1	1050 s
O=C(NCCc1c[nH]c2ccccc12)c1cc2occc2c(Nc2ccc(F)cc2)n1	1020 s
Cc1ccc(CN2CCC(c3nc(-c4cnccn4)n[nH]3)CC2)o1	566 s
COc1ccc(-c2nc(CNC(=O)c3ccc(-c4noc(C(C)C)n4)cc3)no2)cc1	1000 s
N#Cc1ccc(S(=O)(=O)NC2CCc3nn(CC4CC4)c(=O)n3CC2)cc1 (stereo unspecified)	616 s
Cc1noc(-c2ccc(NC(=O)c3cc(-c4ccco4)on3)cc2)n1	902 s
O=C(CCC(=O)N1CC(n2cnnc2C2CCOCC2)C1)N1CCOCC1	550 s
COc1ccc(OC)c(NC(=O)N2CCN(c3cc(C)nc(N4CCOCC4)n3)CC2)c1	627 s
COc1ccc(NC(=O)C2CCc3nc(N4CCCC4)ncc3C2)cc1OC (stereo unspecified)	719 s
CCCCN1CCN(S(=O)(=O)c2cc(-c3nnc(C4CC4)o3)co2)CC1	633 s
COc1cc(NC(=O)N2CCc3cn(C)c4cccc(c34)C2)cc(OC)c1OC	801 s
COC(=O)C1CCN(S(=O)(=O)CCCOc2cccc3c2OC(C)(C)C3)CC1	936 s
